The structures appear in SMILES notation. Where two headings read alike, the source gives them in different places.

For the test, the target named is T1, human V1a receptor (Homo sapiens, UniProt P37288).
T1 construct: expressed in transfected cells; host or cells: HEK293 cells, transiently transfected; membranes prepared
In words: human V1a receptor binding (3H-Vasopressin SPA, membranes of transfected HEK293 cells). The protocol: The human V1a receptor was cloned by RT-PCR from total human liver RNA. The coding sequence was subcloned in an expression vector after sequencing to confirm the identity of the amplified sequence. […] Cell membranes were prepared from HEK293 cells transiently transfected with the expression vector and grown in 20 liter fermenters with the following protocol.
50 g of cells are resuspended in 30 ml freshly prepared ice cold Lysis buffer (50 mM HEPES, 1 mM EDTA, 10 mM MgCl2 adjusted to pH=7.4+ complete cocktail of protease inhibitor (Roche Diagnostics)). Homogenized with Polytron for 1 min and sonicated on ice for 2×2 minutes at 80% intensity (Vibracell sonicator). The preparation is centrifuged 20 min at 500 g at 4° C., the pellet is discarded and the supernatant centrifuged 1 hour at 43,000 g at 4° C. (19'000 rpm). The pellet is resuspended in 12.5 ml Lysis buffer+12.5 ml Sucrose 20% and homogenized using a Polytron for 1-2 min. The protein concentration is determined by the Bradford method, and aliquots are stored at −80° C. until use. For binding studies 60 mg Yttrium silicate SPA beads (Amersham) are mixed with an aliquot of membrane in binding buffer (50 mM Tris, 120 mM NaCl, 5 mM KCl, 2 mM CaCl2, 10 mM MgCl2) for 15 minutes with mixing. 50 ul of bead/membrane mixture is then added to each well of a 96 well plate, followed by 50 ul of 4 nM 3H-Vasopressin (American Radiolabeled Chemicals). For total binding measurement 100 ul of binding buffer are added to the respective wells, for non-specific binding 100 ul of […] cold vasopressin and for compound testing 100 ul of a serial dilution of each compound in 2% DMSO. The plate is incubated 1 h at room temperature, centrifuged 1 min at 1000 g and counted on a Packard Top-Count. Non-specific binding counts are subtracted from each well, and data is normalized to the maximum specific binding set at 100%. To calculate an IC 50 the curve is fitted using a non-linear regression model (XLfit) and the Ki is calculated using the Cheng-Prussoff equation.

Setting [1] is: displacement of 4 nM 3H-Vasopressin, HEK293 cell membranes, Ki by Cheng-Prussoff from IC50, read-out: Ki.

T1 sequence (P37288 whole entry): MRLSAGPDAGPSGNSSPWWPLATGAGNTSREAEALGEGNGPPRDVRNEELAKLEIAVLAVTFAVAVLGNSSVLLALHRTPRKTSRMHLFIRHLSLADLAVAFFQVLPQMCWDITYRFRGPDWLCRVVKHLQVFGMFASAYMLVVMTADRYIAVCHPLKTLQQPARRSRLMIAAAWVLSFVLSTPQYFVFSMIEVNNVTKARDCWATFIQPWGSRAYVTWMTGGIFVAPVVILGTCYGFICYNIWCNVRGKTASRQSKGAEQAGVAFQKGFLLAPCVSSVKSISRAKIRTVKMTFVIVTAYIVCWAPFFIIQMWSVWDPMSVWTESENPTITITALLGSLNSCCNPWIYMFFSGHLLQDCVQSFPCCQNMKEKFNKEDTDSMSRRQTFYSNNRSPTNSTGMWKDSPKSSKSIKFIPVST

As to `COc1ccccc1C1=CCN(C(=O)c2c(C)n(Cc3ccccc3)c3ccccc23)CC1` [Example 3], the Ki turned out to be 14 nM. Take `Cc1c(C(=O)N2CCC(c3ccccc3)CC2)c2ccccc2n1Cc1ccccc1` [Example 24]: the Ki was 10 nM. On to `COc1cccc(OC)c1C1CCN(C(=O)c2c[nH]c3cc(Cl)ccc23)CC1` [Example 40, (6-Chloro-1H-indol-3-yl)-[4-(2,6-dimethoxy-phenyl)-piperidin-1-yl]-methanone], for which the Ki under setting [1] is 8 nM. The same measure, in the same setting: to `COc1cccc(OC)c1C1CCN(C(=O)c2cn(CC(=O)N(C)C)c3cc(Cl)ccc23)CC1` [Example 43, 2-{6-Chloro-3-[4-(2,6-dimethoxy-phenyl)-piperidine-1-carbonyl]-indol-1-yl}-N,N-dimethyl-acetamide] belongs 2 nM; to `COc1cccc(OC)c1C1CCN(C(=O)c2cn(CC(=O)c3ccccn3)c3cc(Cl)ccc23)CC1` [Example 44, 2-{6-Chloro-3-[4-(2,6-dimethoxy-phenyl)-piperidine-1-carbonyl]-indol-1-yl}-1-pyridin-2-yl-ethanone], 3 nM; to `COc1cccc(OC)c1C1CCN(C(=O)c2cn(Cc3ccncc3)c3cc(Cl)ccc23)CC1` [Example 45, (6-Chloro-1-pyridin-4-ylmethyl-1H-indol-3-yl)-[4-(2,6-dimethoxy-phenyl)-piperidin-1-yl]-methanone], 7 nM.

In the case of `COc1cccc(OC)c1C1CCN(C(=O)c2cn(Cc3cccnc3)c3cc(Cl)ccc23)CC1` [Example 46, (6-Chloro-1-pyridin-3-ylmethyl-1H-indol-3-yl)-[4-(2,6-dimethoxy-phenyl)-piperidin-1-yl]-methanone], under setting [1], the Ki is 7 nM. For `COc1cccc(OC)c1C1CCN(C(=O)c2cn(Cc3ccccn3)c3cc(Cl)ccc23)CC1` [Example 47, (6-Chloro-1-pyridin-2-ylmethyl-1H-indol-3-yl)-[4-(2,6-dimethoxy-phenyl)-piperidin-1-yl]-methanone], affinity was put at a Ki of 4 nM. Take `COc1cccc(OC)c1C1CCN(C(=O)c2cn(CC(=O)OC(C)(C)C)c3cc(Cl)ccc23)CC1` [Example 49, {6-Chloro-3-[4-(2,6-dimethoxy-phenyl)-piperidine-1-carbonyl]-indol-1-yl}-acetic acid tert-butyl ester]: the inhibition constant Ki under setting [1] was 3 nM. In turn, `COc1cccc(OC)c1C1CCN(C(=O)c2cn(Cc3cnccn3)c3cc(Cl)ccc23)CC1` [Example 50] yielded an inhibitory constant (Ki) of 4 nM.

Turning to `COc1cccc(OC)c1C1CCN(C(=O)c2cn(CCN(C)C)c3cc(Cl)ccc23)CC1` [Example 52, [6-Chloro-1-(2-dimethylamino-ethyl)-1H-indol-3-yl]-[4-(2,6-dimethoxy-phenyl)-piperidin-1-yl]-methanone], under setting [1], the Ki was found to be 4 nM.

On to `COc1cccc(OC)c1C1CCN(C(=O)c2cn(CC(=O)N3CCN(C)CC3)c3cc(Cl)ccc23)CC1` [Example 55, 2-{6-Chloro-3-[4-(2,6-dimethoxy-phenyl)-piperidine-1-carbonyl]-indol-1-yl}-1-(4-methyl-piperazin-1-yl)-ethanone], for which the Ki under setting [1] amounted to 2 nM. In turn, `COc1ccccc1C1CCN(C(=O)c2cn(Cc3cc(F)cc(F)c3)c3cc(Cl)ccc23)CC1` [Example 56, [6-Chloro-1-(3,5-difluoro-benzyl)-1H-indol-3-yl]-[4-(2-methoxy-phenyl)-piperidin-1-yl]-methanone] displayed an inhibition constant Ki of 2 nM. Regarding `COc1ccccc1C1CCN(C(=O)c2cn(CC(=O)N(C)C)c3cc(Cl)ccc23)CC1` [Example 57, 2-{6-Chloro-3-[4-(2-methoxy-phenyl)-piperidine-1-carbonyl]-indol-1-yl}-N,N-dimethyl-acetamide], under setting [1], the inhibition constant (Ki) is 2 nM. As to `COc1ccccc1C1CCN(C(=O)c2cn(CC(=O)N3CCN(C)CC3)c3cc(Cl)ccc23)CC1` [Example 58, 2-{6-Chloro-3-[4-(2-methoxy-phenyl)-piperidine-1-carbonyl]-indol-1-yl}-1-(4-methyl-piperazin-1-yl)-ethanone], the Ki under setting [1] is 9 nM. With `COc1ccccc1C1CCN(C(=O)c2cn(CC(=O)OC(C)(C)C)c3cc(Cl)ccc23)CC1` [Example 59, {6-Chloro-3-[4-(2-methoxy-phenyl)-piperidine-1-carbonyl]-indol-1-yl}-acetic acid tert-butyl ester], the Ki under setting [1] was 2 nM.

`COc1ccccc1C1(C#N)CCN(C(=O)c2cn(CC(=O)N(C)C)c3cc(Cl)ccc23)CC1` [Example 60, 2-{6-Chloro-3-[4-cyano-4-(2-methoxy-phenyl)-piperidine-1-carbonyl]-indol-1-yl}-N,N-dimethyl-acetamide] returned a Ki of 8 nM. `CN(C)C(=O)Cn1cc(C(=O)N2CCC(C#N)(c3ccccc3F)CC2)c2ccc(Cl)cc21` [Example 61, 2-{6-Chloro-3-[4-cyano-4-(2-fluoro-phenyl)-piperidine-1-carbonyl]-indol-1-yl}-N,N-dimethyl-acetamide] displayed a Ki of 13 nM. For the compound `COc1cccc(OC)c1C1CCN(C(=O)c2cn(CC(=O)N(C)C)c3ccccc23)CC1` [Example 62, 2-{3-[4-(2,6-Dimethoxy-phenyl)-piperidine-1-carbonyl]-indol-1-yl}-N,N-dimethyl-acetamide], under setting [1], the Ki came to 11 nM. On the same count and under the same terms, with `COc1cccc(OC)c1C1CCN(C(=O)c2cn(Cc3ccnc(C)c3)c3cc(Cl)ccc23)CC1` [Example 63, [6-Chloro-1-(2-methyl-pyridin-4-ylmethyl)-1H-indol-3-yl]-[4-(2,6-dimethoxy-phenyl)-piperidin-1-yl]-methanone] the figure was 2 nM. For `CC(C)Oc1ccccc1C1CCN(C(=O)c2cn(CC(=O)N(C)C)c3cc(Cl)ccc23)CC1` [Example 66, 2-{6-Chloro-3-[4-(2-isopropoxy-phenyl)-piperidine-1-carbonyl]-indol-1-yl}-N,N-dimethyl-acetamide], the inhibition constant Ki under setting [1] is 4 nM. `CC(C)Oc1ccccc1C1CCN(C(=O)c2cn(CC(=O)N3CCN(C)CC3)c3cc(Cl)ccc23)CC1` [Example 67, 2-{6-Chloro-3-[4-(2-isopropoxy-phenyl)-piperidine-1-carbonyl]-indol-1-yl}-1-(4-methyl-piperazin-1-yl)-ethanone]: the Ki under setting [1] amounted to 5 nM. For `COc1cccc(OC)c1C1CCN(C(=O)c2cn(CC(=O)N3CCNCC3)c3cc(Cl)ccc23)CC1` [Example 69, 2-{6-Chloro-3-[4-(2,6-dimethoxy-phenyl)-piperidine-1-carbonyl]-indol-1-yl}-1-piperazin-1-yl-ethanone], under setting [1], the Ki stood at 6 nM. Compound `CN1CCN(C(=O)Cn2cc(C(=O)N3CCC(c4cccc5c4OCC5)CC3)c3ccc(Cl)cc32)CC1` [Example 71, 2-{6-Chloro-3-[4-(2,3-dihydro-benzofuran-7-yl)-piperidine-1-carbonyl]-indol-1-yl}-1-(4-methyl-piperazin-1-yl)-ethanone] had an inhibitory constant (Ki) of 5 nM. Turning to `CN(C)C(=O)Cn1cc(C(=O)N2CCC(c3cccc4c3OCC4)CC2)c2ccc(Cl)cc21` [Example 72, 2-{6-Chloro-3-[4-(2,3-dihydro-benzofuran-7-yl)-piperidine-1-carbonyl]-indol-1-yl}-N,N-dimethyl-acetamide], the inhibition constant (Ki) under setting [1] was determined as 3 nM. For the compound `CNC(=O)Cn1cc(C(=O)N2CCC(c3cccc4c3OCC4)CC2)c2ccc(Cl)cc21` [Example 76, 2-{6-Chloro-3-[4-(2,3-dihydro-benzofuran-7-yl)-piperidine-1-carbonyl]-indol-1-yl}-N-methyl-acetamide], the inhibition constant (Ki) under setting [1] amounted to 8 nM. As for `COc1ccccc1C1CCN(C(=O)c2cn(CC(=O)N(C)C)c3cc(Cl)c(Cl)cc23)CC1` [Example 80, 2-{5,6-Dichloro-3-[4-(2-methoxy-phenyl)-piperidine-1-carbonyl]-indol-1-yl}-N,N-dimethyl-acetamide], the inhibitory constant (Ki) under setting [1] worked out at 6 nM. On to `COc1cccc(OC)c1C1CCN(C(=O)c2cn(CC(N)=O)c3cc(Cl)ccc23)CC1` [Example 81, 2-{6-Chloro-3-[4-(2,6-dimethoxy-phenyl)-piperidine-1-carbonyl]-indol-1-yl}-acetamide], for which the Ki worked out at 13 nM. `CNC(=O)Cn1cc(C(=O)N2CCC(c3c(OC)cccc3OC)CC2)c2ccc(Cl)cc21` [Example 82, 2-{6-Chloro-3-[4-(2,6-dimethoxy-phenyl)-piperidine-1-carbonyl]-indol-1-yl}-N-methyl-acetamide]: the Ki under setting [1] is 2 nM. For the compound `COc1cccc(OC)c1C1CCN(C(=O)c2cn(CC(=O)NCCN)c3cc(Cl)ccc23)CC1` [Example 84, N-(2-Amino-ethyl)-2-{6-chloro-3-[4-(2,6-dimethoxy-phenyl)-piperidine-1-carbonyl]-indol-1-yl}-acetamide], the inhibitory constant (Ki) under setting [1] stood at 11 nM. `CN(C)CCn1cc(C(=O)N2CCC(c3cccc4c3OCC4)CC2)c2ccc(Cl)cc21` [Example 87, [6-Chloro-1-(2-dimethylamino-ethyl)-1H-indol-3-yl]-[4-(2,3-dihydro-benzofuran-7-yl)-piperidin-1-yl]-methanone] returned an inhibition constant (Ki) of 4 nM.
